Measurements: PMC12055641, “The Study of Antistaphylococcal Potential of Omiganan and Retro-Omiganan Under Flow Conditions” (Probiotics and Antimicrobial Proteins, 2024)
No end group written: not given here.

What was measured:
[1] = system: S. aureus clinical strain 043SC (MRSA) biofilm; conditions: clinical strain 043SC biofilm, 24 h
From the text: (§1) Clinical S. aureus strains were collected from patients with atopic dermatitis during their visits to the Outpatient Clinic and hospitalization in the Department of Dermatology, Venereology and Allergology at Medical University of Gdańsk (following the approval from the ethics committee, Approval Number NKBBN/242–477/2014). Reference strains of S. aureus ATCC 25923, S. aureus ATCC 33591, S. aureus ATCC 9144, and S. aureus ATCC 12598 were obtained from the American Type Culture Collection. All the strains were stored at − 80 °C in Roti®-Store cryo vials (Carl Roth GmbH, Karlsruhe, Germany) and before the tests were transferred into fresh Mueller–Hinton Medium (BioMaxima, Lublin, Poland) and incubated for 24 h at 37 °C. Subsequently, each bacterial inoculum was seeded on Mueller–Hinton agar plates (BioMaxima) and incubated again for 24 h. The cultures prepared in this way were used in further antimicrobial assays. Minimum inhibitory concentrations (MICs) were determined according to the Clinical and Laboratory Standards Institute recommendations. […] The experiments were conducted on 96-well microtiter plates, with a final volume of 100 μL. Additionally, in the case of daptomycin, the medium was supplemented with Ca^2+ (50 mg/L). Cell densities were adjusted spectrophotometrically (Multiskan™ GO Microplate Spectrophotometer, Thermo Scientific) at 600 nm. The MICs were taken as the lowest drug concentration at which a visible growth of the microorganisms was inhibited. Minimum biofilm eliminating concentrations (MBECs) were determined on 96-well flat-bottomed microtiter polystyrene plates with resazurin (7-hydroxy-3H-phenoxazin-3-one 10-oxide sodium salt) as a cell viability reagent. To do this, the plates were filled with 100 μL of the initial inoculums of bacteria (0.5 × 10^7 CFU/mL) in the Mueller–Hinton broth and incubated for 24 h at 37 °C. […] After 24 h of incubation, 20 μL of resazurin (4 mg/mL) was added to each well and the MBEC values were read. Minimum biofilm inhibitory concentrations (MBICs) were also determined on 96-well flat-bottomed microtiter polystyrene plates as described previously. To do this, 50 μL of the compounds in the concentration range, diluted MHB, were prepared. Subsequently, the 50 μL of the staphylococcal inoculums were added to reach the same density of bacteria as that in the MBEC assay. After 24 h of incubation at 37 °C, the wells were rinsed three times with PBS and the fresh medium (100 μL) with resazurin (0.6 mg/mL) was added. Then, after 1 h of incubation, MBICs were read. […] All experiments were conducted in triplicate.

[2] = system: S. aureus clinical strain 051N (MRSA) biofilm; conditions: clinical strain 051N biofilm, 24 h
From the text: as §1

[3] = system: biofilm of reference and clinical strains of staphylococci (S. aureus); conditions: for mean MBEC (initial values): 24 h
From the text: as §1

[4] = system: S. aureus clinical strain 004N (MRSA) biofilm; conditions: clinical strain 004N biofilm, 24 h
From the text: as §1

[5] = system: reference and clinical strains of staphylococci (S. aureus); conditions: 24 h
From the text: as §1

[6] = system: S. aureus ATCC 33591 (MRSA) biofilm; conditions: ATCC 33591, 24 h
From the text: as §1

[7] = system: S. aureus clinical strain 015N (MRSA) biofilm; conditions: clinical strain 015N biofilm, 24 h
From the text: as §1

[8] = system: S. aureus clinical strain 015N (MRSA); conditions: 24 h
From the text: as §1

[9] = system: S. aureus clinical strain 004N (MRSA); conditions: 24 h
From the text: as §1

[10] = system: S. aureus clinical strain 043SC (MRSA); conditions: 24 h
From the text: as §1

[11] = system: S. aureus ATCC 33591 (MRSA); conditions: ATCC 33591, 24 h
From the text: as §1

[12] = system: S. aureus clinical strain 051N (MRSA); conditions: 24 h
From the text: as §1

Hemolysis assay = type: cell-based; conditions: human, human red blood cells (RBCs), 64 μg/mL (lowest concentration causing hemolysis > 10%); read-out: degree of hemolysis
Description: The hemolysis assay was conducted using a procedure described previously. […] The control wells for 0% hemolysis and 100% hemolysis consisted of RBCs suspended in PBS and 1% of Triton X-100, respectively. […] After centrifugation, the supernatant was carefully […] to new microtiter plates and the release of hemoglobin was monitored by absorbance readings at 540 nm (MultiskanTM GO Microplate Spectrophotometer, Thermo Scientific). All experiments were conducted in triplicate. Blood collection was approved by Medical University of Gdańsk ethics committee (Consent Number: NKBBN/264/2019).

[13] = system: human keratinocytes (HaCaT); type: cell-based; conditions: 24 h
Description: To evaluate the cytotoxicity of the peptides (IC50), the classic MTT assay on 96-well plates was performed for human keratinocytes (HaCaT) which were acquired from the ATCC. The assay utilizes colorimetric determination of the cell metabolic activity, and the color intensity reflects the number of live cells that can be measured spectrophotometrically. […] DMSO was added to the control cells at a final concentration of 1.0% (v/v), which was related to the maximum concentration of the solvent compounds used in the experiment. After 24 h of incubation at 37 °C (humidified 5% CO2 incubator) with the peptides, a medium containing 1 mg/mL of MTT was added to the wells up to a final concentration of 0.5 mg/mL. Subsequently, the plates were incubated at 37 °C for 4 h. Then, the medium was aspirated, and the formazan product was solubilized with DMSO. The background absorbance at 630 nm was subtracted from that at 570 nm for each well (Epoch, BioTek Instruments, USA). Six replicates were conducted for each concentration. All experiments were repeated at least twice and the resulting IC50 values were calculated with GraFit 7 software (v. 7.0, Erithacus, Berkley, CA, USA).

[14] = system: S. aureus ATCC 25923 biofilm; conditions: ATCC 25923, reference strain
From the text: as §1

S. aureus ATCC 12598 = conditions: ATCC 12598, reference strain
From the text: as §1

[15] = system: S. aureus clinical strain 031S biofilm
From the text: as §1

[16] = system: S. aureus clinical strain 005S
From the text: as §1

[17] = system: S. aureus clinical strain 009S
From the text: as §1

S. aureus ATCC 9144 = conditions: ATCC 9144, reference strain
From the text: as §1

S. aureus ATCC 25923 = conditions: ATCC 25923, reference strain
From the text: as §1

[18] = system: S. aureus clinical strain 060S
From the text: as §1

[19] = system: S. aureus ATCC 12598 biofilm; conditions: ATCC 12598, reference strain
From the text: as §1

[20] = system: S. aureus ATCC 9144 biofilm; conditions: ATCC 9144, reference strain
From the text: as §1

[21] = system: S. aureus clinical strain 030N biofilm
From the text: as §1

[22] = system: S. aureus clinical strain 060S biofilm
From the text: as §1

[23] = system: S. aureus clinical strain 005S biofilm
From the text: as §1

[24] = system: S. aureus clinical strain 009S biofilm
From the text: as §1

[25] = system: S. aureus clinical strain 030N
From the text: as §1

[26] = system: S. aureus clinical strain 031S
From the text: as §1

S. aureus ATCC 6538 = conditions: ATCC 6538, reference strain
[27] = system: S. aureus ATCC 6538 biofilm; conditions: ATCC 6538, reference strain
[28] = system: S. aureus ATCC 6538 biofilm; conditions: ATCC 6538, reference strain; remark: listed apart in the source
cells = system: cells; design: method as in PMID 11294848; conditions: low concentrations; cited from earlier work

Q: Which results are given for KRRWPWWPWRLI-NH2 [Retro-omiganan Cl^−]?
A: MBEC [1]: 32 µg/mL; MBIC [1]: 16 µg/mL; MBEC [2]: 64 µg/mL; MBIC [2]: 16 µg/mL; mean MBEC (initial values) [3]: 36.57 µg/mL; MBEC [4]: 64 µg/mL; MBIC [4]: 16 µg/mL; mean MIC (initial values) [5]: 8.93 µg/mL; MBEC [6]: 32 µg/mL; MBIC [6]: 32 µg/mL; MBEC [7]: 32 µg/mL; MBIC [7]: 16 µg/mL; MIC [8]: 8 µg/mL; MIC [9]: 16 µg/mL; MIC [10]: 8 µg/mL; MIC [11]: 16 µg/mL; MIC [12]: 16 µg/mL; hemolysis at 60 min, 64 μg/mL (Hemolysis assay): 16%; IC50 [13]: 26.66 µg/mL

Q: With KRRWPWWPWRLI-NH2 [Retro-omiganan TFA^−] as the substance, how does the MBEC [1] read?
A: The MBEC was 16 µg/mL.

Q: What about the MBIC [1] of the same substance?
A: Its MBIC is 8 µg/mL.

Q: And the MBEC [14]?
A: The MBEC was 128 µg/mL.

Q: What about the MBIC [14] of the same substance?
A: Its MBIC is 16 µg/mL.

Q: And the MBEC [2]?
A: The MBEC was 32 µg/mL.

Q: And the MBIC [2]?
A: The MBIC was 32 µg/mL.

Q: What about the “mean MBEC (initial values)” value [3] of the same substance?
A: The value was 40.00 µg/mL.

Q: What about the “mean MBIC (initial values)” value ([3]; average over 14 strains, polystyrene 96-well plates, not corrected) of the same substance?
A: Its value is 11.82 µg/mL.

Q: What about the MIC (S. aureus ATCC 12598) of the same substance?
A: The MIC was 8 µg/mL.

Q: And the MBEC [15]?
A: The MBEC was 16 µg/mL.

Q: And the MIC [16]?
A: Its MIC is 0.5 µg/mL.

Q: And the MBEC [4]?
A: The MBEC was 64 µg/mL.

Q: And the MBIC [4]?
A: The MBIC was 16 µg/mL.

Q: What about the MIC [17] of the same substance?
A: Its MIC is 1 µg/mL.

Q: And the MIC (S. aureus ATCC 9144)?
A: The MIC was 8 µg/mL.

Q: And the “mean MIC (initial values)” value [5]?
A: Its value is 7.18 µg/mL.

Q: What about the MIC (S. aureus ATCC 25923) of the same substance?
A: Its MIC is 8 µg/mL.

Q: And the MIC [18]?
A: Its MIC is 1 µg/mL.

Q: And the MBEC [19]?
A: The MBEC was 32 µg/mL.

Q: And the MBIC [19]?
A: Its MBIC is 16 µg/mL.

Q: What about the MBEC [6] of the same substance?
A: The MBEC was 64 µg/mL.

Q: What about the MBIC [6] of the same substance?
A: Its MBIC is 16 µg/mL.

Q: What about the MBEC [7] of the same substance?
A: Its MBEC is 32 µg/mL.

Q: And the MBIC [7]?
A: Its MBIC is 16 µg/mL.

Q: What about the MBEC [20] of the same substance?
A: The MBEC was 32 µg/mL.

Q: What about the MBIC [20] of the same substance?
A: The MBIC was 16 µg/mL.

Q: And the MBEC [21]?
A: Its MBEC is 32 µg/mL.

Q: And the MBIC [21]?
A: The MBIC was 8 µg/mL.

Q: And the MIC [8]?
A: Its MIC is 8 µg/mL.

Q: What about the MBEC [22] of the same substance?
A: The MBEC was 16 µg/mL.

Q: What about the MBIC [22] of the same substance?
A: Its MBIC is 1 µg/mL.

Q: What about the MIC [9] of the same substance?
A: The MIC was 8 µg/mL.

Q: What about the MBEC [23] of the same substance?
A: The MBEC was 16 µg/mL.

Q: And the MBIC [23]?
A: The MBIC was 2 µg/mL.

Q: What about the MBEC [24] of the same substance?
A: The MBEC was 16 µg/mL.

Q: And the MBIC [24]?
A: The MBIC was 2 µg/mL.

Q: And the MIC [10]?
A: Its MIC is 8 µg/mL.

Q: And the MIC [25]?
A: The MIC was 16 µg/mL.

Q: What about the MIC [26] of the same substance?
A: Its MIC is 2 µg/mL.

Q: What about the MIC [11] of the same substance?
A: Its MIC is 16 µg/mL.

Q: What about the MIC [12] of the same substance?
A: Its MIC is 8 µg/mL.

Q: What about the MIC (S. aureus ATCC 6538) of the same substance?
A: The MIC was 8 µg/mL.

Q: And the MBEC [27]?
A: The MBEC was 64 µg/mL.

Q: And the MBIC [28]?
A: Its MBIC is 16 µg/mL.

Q: And the IC50 [13]?
A: The IC50 was 29.51 µg/mL.

Q: With “indolicidin: antimicrobial peptide derived from bovine neutrophil granules (ILPWKWPWWPWRR; ends and bridges not checked; UniProt P33046 131-143, looked up)” as the substance, how does the “cells with membrane depolarization” value (cells) read?
A: Its value is “up to 75%”.
